# Measured values from patent US12540131B2 (Merck Sharp & Dohme LLC, priority 2019, dated 2026).
# Biological target: GST tagged truncated human mutant G2019S LRRK2 (Homo sapiens (Human), UniProt Q5S007, G2019S)
# Experiment: LRRK2 Km ATP LanthaScreen Assay
# Assay type: biochemical
# Conditions: G2019S LRRK2, 134 μM ATP (Km ATP), mean values
# Summary of the method: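 Enzyme (GST-tagged, truncated) was preincubated with compound for 15 min at RT in 50 mM Tris pH 8.5, 10 mM MgCl2, 0.01% Brij-35, 1 mM EGTA, 2 mM DTT and 0.05 mM orthovanadate. Fluorescein-LRRKtide and 134 μM ATP (Km) were then added for 90 min. EDTA and Tb-anti-pERM antibody stopped the reaction; the TR-FRET 520/495 ratio gave 4-parameter IC50s, reported as mean pIC50.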
# Sequence of GST tagged truncated human mutant G2019S LRRK2 (Q5S007 970-2527 G2019S): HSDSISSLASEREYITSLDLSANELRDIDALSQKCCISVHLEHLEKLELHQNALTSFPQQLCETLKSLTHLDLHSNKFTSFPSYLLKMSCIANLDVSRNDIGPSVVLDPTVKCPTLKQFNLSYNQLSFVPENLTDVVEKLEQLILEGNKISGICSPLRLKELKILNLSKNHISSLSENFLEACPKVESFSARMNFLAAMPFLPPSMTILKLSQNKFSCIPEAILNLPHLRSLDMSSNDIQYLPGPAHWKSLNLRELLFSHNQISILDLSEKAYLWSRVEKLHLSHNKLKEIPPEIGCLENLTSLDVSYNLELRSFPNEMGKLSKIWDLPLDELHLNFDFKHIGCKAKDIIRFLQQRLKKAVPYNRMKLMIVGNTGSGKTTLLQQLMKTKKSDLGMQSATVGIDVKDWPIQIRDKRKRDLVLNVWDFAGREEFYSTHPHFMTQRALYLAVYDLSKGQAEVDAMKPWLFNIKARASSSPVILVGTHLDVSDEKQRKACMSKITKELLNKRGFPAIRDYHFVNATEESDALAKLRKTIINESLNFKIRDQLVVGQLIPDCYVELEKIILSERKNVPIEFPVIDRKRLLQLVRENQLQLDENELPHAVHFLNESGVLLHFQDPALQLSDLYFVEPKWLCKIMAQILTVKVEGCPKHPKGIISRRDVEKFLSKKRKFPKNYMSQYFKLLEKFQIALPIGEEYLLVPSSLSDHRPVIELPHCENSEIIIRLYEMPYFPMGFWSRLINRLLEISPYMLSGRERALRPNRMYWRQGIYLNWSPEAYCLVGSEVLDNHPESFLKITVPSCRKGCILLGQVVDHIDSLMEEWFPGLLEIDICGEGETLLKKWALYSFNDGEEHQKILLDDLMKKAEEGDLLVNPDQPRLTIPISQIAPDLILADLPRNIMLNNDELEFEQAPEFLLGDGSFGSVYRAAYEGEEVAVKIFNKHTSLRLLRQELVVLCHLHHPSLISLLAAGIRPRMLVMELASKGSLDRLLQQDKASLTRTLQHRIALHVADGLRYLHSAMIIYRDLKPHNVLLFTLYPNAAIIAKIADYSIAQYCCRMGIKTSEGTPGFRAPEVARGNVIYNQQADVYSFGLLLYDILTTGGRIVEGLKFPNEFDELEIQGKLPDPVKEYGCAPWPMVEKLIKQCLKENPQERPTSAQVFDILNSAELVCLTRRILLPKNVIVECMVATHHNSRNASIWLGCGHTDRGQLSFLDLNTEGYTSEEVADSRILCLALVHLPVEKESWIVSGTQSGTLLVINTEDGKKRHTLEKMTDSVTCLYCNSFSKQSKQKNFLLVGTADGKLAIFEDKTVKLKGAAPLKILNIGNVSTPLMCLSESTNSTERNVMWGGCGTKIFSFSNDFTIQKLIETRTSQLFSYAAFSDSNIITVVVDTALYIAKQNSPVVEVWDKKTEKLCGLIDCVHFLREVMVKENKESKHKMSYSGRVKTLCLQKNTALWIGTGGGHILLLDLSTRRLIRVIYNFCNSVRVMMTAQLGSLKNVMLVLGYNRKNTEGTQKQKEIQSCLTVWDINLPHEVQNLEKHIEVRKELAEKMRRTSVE
row,Structure (SMILES),LRRK2 pIC50
1,"Cc1cc2cnc(Nc3cnn(CC(C)(C)O)c3Cl)nc2cc1C1CCN(C2COC2)CC1 [Ex-4.80, 1-[5-chloro-4-({6-methyl-7-[1-(oxetan-3-yl)piperidin-4-yl]quinazolin-2-yl}amino)-1H-pyrazol-1-yl]-2-methylpropan-2-ol]",8.87
2,"CN1CCC(c2cc3nc(Nc4cnn(C5(C)CC5)c4Cl)ncc3cc2Cl)CC1 [Ex-8.14, 6-chloro-N-[5-chloro-1-(1-methylcyclopropyl)-1H-pyrazol-4-yl]-7-(1-methylpiperidin-4-yl)quinazolin-2-amine]",>9.20
3,"Cc1cc(Nc2ncc3cc(Cl)c(C4CCN(C5COCC5O)CC4F)cc3n2)n(C)n1 (single isomer, unassigned) [Ex-4.235, (3S,4S)(3S,4S) or (3S,4S)(3R,4R) or (3R,4R)(3S,4S) or (3R,4R)(3R,4R) 4-(4-{6-chloro-2-[(1,3-dimethyl-1H-pyrazol-5-yl)amino]quinazolin-7-yl}-3-fluoropiperidin-1-yl)oxolan-3-ol]",8.84
4,"F[C@@H]1CN(C2COC2)C[C@H]1c1cc2nc(Nc3cnn(C4CC4)c3Cl)ncc2cc1Cl (single isomer, unassigned) [Ex-4.42, (3S,4R) or (3R,4S) 6-chloro-N-(5-chloro-1-cyclopropyl-1H-pyrazol-4-yl)-7-[4-fluoro-1-(oxetan-3-yl)pyrrolidin-3-yl]quinazolin-2-amine]",7.21
5,"CCN1CC[C@@H](c2cc3nc(Nc4cnn(CC(C)(C)O)c4Cl)ncc3cc2Cl)[C@H](F)C1 (single isomer, unassigned) [Ex-4.4, (3S,4S) or (3R,4R) 1-(5-chloro-4-((6-chloro-7-(1-ethyl-3-fluoropiperidin-4-yl)quinazolin-2-yl)amino)-1H-pyrazol-1-yl)-2-methylpropan-2-ol]",8.88
6,"OC1COCC1n1ncc(Nc2ncc3cc(Cl)c(C4CCN(C5COC5)CC4)cc3n2)c1Cl (single isomer, unassigned) [Ex-2.47, (3S,4S) or (3R,4R) or (3S,4R) or (3R,4S) 4-[5-chloro-4-({6-chloro-7-[1-(oxetan-3-yl)piperidin-4-yl]quinazolin-2-yl}amino)-1H-pyrazol-1-yl]oxolan-3-ol]",9.11
7,"Cc1cc(Nc2ncc3cc(C)c([C@@H]4CCN([C@@H]5COC[C@@H]5O)C[C@H]4F)cc3n2)n(C)n1 (single isomer, unassigned) [Ex-5.9, (3S,4S)(3S,4S) or (3S,4S)(3R,4R) or (3R,4R)(3S,4S) or (3R,4R)(3R,4R) 4-(4-{2-[(1,3-dimethyl-1H-pyrazol-5-yl)amino]-6-methylquinazolin-7-yl}-3-fluoropiperidin-1-yl)oxolan-3-ol]",8.49
8,"Cn1ncc(Nc2ncc3cc(Cl)c([C@@H]4CCN([C@]5(C)COC[C@@H]5O)C[C@H]4F)cc3n2)c1C(F)(F)F (single isomer, unassigned) [Ex-4.254, (3S,4S)(3S,4S) or (3S,4S)(3R,4R) or (3R,4R)(3S,4S) or (3R,4R)(3R,4R) 4-[4-(6-chloro-2-{[1-methyl-5-(trifluoromethyl)-1H-pyrazol-4-yl]amino}quinazolin-7-yl)-3-fluoropiperidin-1-yl]-4-methyloxolan-3-ol]",>9.20
9,"[2H]C1([2H])OC([2H])([2H])C1([2H])N1CCC(c2cc3nc(Nc4cnn(CC(C)(C)O)c4Cl)ncc3cc2Cl)CC1 [Ex-4.58, 1-(5-chloro-4-((6-chloro-7-(1-(oxetan-3-yl-d5)piperidin-4-yl)quinazolin-2-yl)amino)-1H-pyrazol-1-yl)-2-methylpropan-2-ol]",>9.20
10,"Cc1c(Nc2ncc3cc(Cl)c(C4CCN(C[C@@H](O)c5ccccc5)CC4)cc3n2)cnn1C1CC1 [Ex-4.193, (1S)-2-(4-{6-chloro-2-[(1-cyclopropyl-5-methyl-1H-pyrazol-4-yl)amino]quinazolin-7-yl}piperidin-1-yl)-1-phenylethan-1-ol]",9.04
11,"Cc1cc2cnc(Nc3cnn(C4CC4(F)F)c3C)nc2cc1[C@@H]1CCN([C@H]2COC[C@H]2O)C[C@H]1F (single isomer, unassigned) [Ex-4.143, (R)(3S,4S)(3S,4S) or (R)(3S,4S)(3R,4R) or (R)(3R,4R)(3S,4S) or (R)(3R,4R)(3R,4R) or (S)(3S,4S)(3S,4S) or (S)(3S,4S)(3R,4R) or (S)(3R,4R)(3S,4S) or (S)(3R,4R)(3R,4R) 4-[4-(2-{[1-(2,2-difluorocyclopropyl)-5-methyl-1H-pyrazol-4-yl]amino}-6-methylquinazolin-7-yl)-3-fluoropiperidin-1-yl]oxolan-3-ol]",>9.20
12,"COC(C)(C)Cn1ncc(Nc2ncc3cc(Cl)c(C4CCN(C5COC5)CC4)cc3n2)c1Cl [Ex-2.10, 6-chloro-N-[5-chloro-1-(2-methoxy-2-methylpropyl)-1H-pyrazol-4-yl]-7-[1-(oxetan-3-yl)piperidin-4-yl]quinazolin-2-amine]",>9.20
13,"Cc1cc2cnc(Nc3cnn(C4CC4(F)F)c3Cl)nc2cc1[C@@H]1CCN([C@H]2COC[C@H]2O)C[C@H]1F (single isomer, unassigned) [Ex-4.145, (R)(3S,4S)(3S,4S) or (R)(3S,4S)(3R,4R) or (R)(3R,4R)(3S,4S) or (R)(3R,4R)(3R,4R) or (S)(3S,4S)(3S,4S) or (S)(3S,4S)(3R,4R) or (S)(3R,4R)(3S,4S) or (S)(3R,4R)(3R,4R) 4-[4-(2-{[5-chloro-1-(2,2-difluorocyclopropyl)-1H-pyrazol-4-yl]amino}-6-methylquinazolin-7-yl)-3-fluoropiperidin-1-yl]oxolan-3-ol]",>9.20
14,"COC(C)(C)Cn1cc(Nc2ncc3cc(Cl)c(C4CCN(C5COC5)CC4)cc3n2)c(C)n1 [Ex-2.16, 6-chloro-N-[1-(2-methoxy-2-methylpropyl)-3-methyl-1H-pyrazol-4-yl]-7-[1-(oxetan-3-yl)piperidin-4-yl]quinazolin-2-amine]",8.94
15,"Cc1cc2cnc(Nc3cnn(C45CC(C4)C5)c3C)nc2cc1[C@@H]1CCN([C@H]2COC[C@H]2O)C[C@H]1F (single isomer, unassigned) [Ex-4.164, (3S,4S)(3S,4S) or (3S,4S)(3R,4R) or (3R,4R)(3S,4S) or (3R,4R)(3R,4R) 4-[4-(2-{[1-(bicyclo[1.1.1]pentan-1-yl)-5-methyl-1H-pyrazol-4-yl]amino}-6-methylquinazolin-7-yl)-3-fluoropiperidin-1-yl]oxolan-3-ol]",>9.20
16,"Cc1c(Nc2ncc3cc(Cl)c(C4CCN([C@H]5COC[C@H]5O)CC4)cc3n2)cnn1C1CC1 (single isomer, unassigned) [Ex-4.132, (3S,4S) or (3R,4R) 4-(4-{6-chloro-2-[(1-cyclopropyl-5-methyl-1H-pyrazol-4-yl)amino]quinazolin-7-yl}piperidin-1-yl)oxolan-3-ol]",>9.20
17,"Cc1cc2cnc(Nc3cnn(C)c3C)nc2cc1[C@@H]1CCN([C@H]2COC[C@H]2O)C[C@H]1F (single isomer, unassigned) [Ex-4.258, (3S,4S)(3S,4S) or (3S,4S)(3R,4R) or (3R,4R)(3S,4S) or (3R,4R)(3R,4R) 4-(4-(2-((1,5-dimethyl-1H-pyrazol-4-yl)amino)-6-methylquinazolin-7-yl)-3-fluoropiperidin-1-yl)tetrahydrofuran-3-ol]",7.39
18,"OC1CCCC1N1CC[C@@H](c2cc3nc(Nc4cnn(C5CC5)c4Cl)ncc3cc2Cl)[C@H](F)C1 (single isomer, unassigned) [Ex-4.157, (1S,2R)(3S,4S) or (1R,2S)(3S,4S) or (1R,2R)(3S,4S) or (1S,2S)(3S,4S) or (1S,2R)(3R,4R) or (1R,2S)(3R,4R) or (1R,2R)(3R,4R) or (1S,2S)(3R,4R) 2-(4-{6-chloro-2-[(5-chloro-1-cyclopropyl-1H-pyrazol-4-yl)amino]quinazolin-7-yl}-3-fluoropiperidin-1-yl)cyclopentan-1-ol]",8.38

# Same assay, conditions: G2019S LRRK2, 134 μM ATP (Km ATP), mean values; read-out: LRRK2 pIC50 (converted)
row,Structure (SMILES),IC50
1,"CC(C)(O)CN1CCC(c2cc3nc(Nc4cnn(C5CC5)c4)ncc3cc2Cl)C1 (single isomer, unassigned) [Ex-1.10, (S) or (R) 1-(3-{6-chloro-2-[(1-cyclopropyl-1H-pyrazol-4-yl)amino]quinazolin-7-yl}pyrrolidin-1-yl)-2-methylpropan-2-ol]",28.2 nM
2,"CC1(n2ncc(Nc3ncc4cc(Cl)c(C5CCN(C6COC6)C5)cc4n3)c2Cl)CC1 (single isomer, unassigned) [Ex-4.26, (S) or (R) 6-chloro-N-[5-chloro-1-(1-methylcyclopropyl)-1H-pyrazol-4-yl]-7-[1-(oxetan-3-yl)pyrrolidin-3-yl]quinazolin-2-amine]",4.9 nM
3,"CCn1ncc(Nc2ncc3cc(Cl)c(C4CC45CC5)cc3n2)c1C (single isomer, unassigned) [Ex-1.1, (S) or (R) 6-chloro-N-(1-ethyl-5-methyl-1H-pyrazol-4-yl)-7-(spiro[2.2]pentan-1-yl)quinazolin-2-amine]",11.7 nM
4,"Cc1c(Nc2ncc3cc(Cl)c(C4CCN(C5COC5)[C@H](C)C4)cc3n2)cnn1C1CC1 (single isomer, unassigned) [Ex-1.13, (S) or (R) 6-chloro-N-(1-cyclopropyl-5-methyl-1H-pyrazol-4-yl)-7-(2-methyl-1-(oxetan-3-yl)piperidin-4-yl)quinazolin-2-amine]",0.776 nM
5,"Cc1c(Nc2ncc3cc(Cl)c(C4CCN(CC(O)CN5CCOC5=O)CC4)cc3n2)cnn1C1CC1 (single isomer, unassigned) [Ex-4.221, (S) or (R) 3-[3-(4-{6-chloro-2-[(1-cyclopropyl-5-methyl-1H-pyrazol-4-yl)amino]quinazolin-7-yl}piperidin-1-yl)-2-hydroxypropyl]-1,3-oxazolidin-2-one]",< 0.631 nM
